The results in this text go back to PubChem BioAssay (NCI).

Holding throughout (assay): growth of human tumour cells (NCI), 48 h
Test [1] has as its system 786-0 renal.
The subject of test [2] is A549 NSCLC.
Test [3] deals with BT-549 breast.
Test [4] relates to CCRF-CEM leukemia.
The subject of test [5] is HCT-15 colon.
In test [6] the test system is LOX IMVI melanoma.
The test system of test [7] is M14 melanoma.
For test [8], the system named is MCF7 breast.
The subject of test [9] is MDA-MB-231 breast.
Test [10] deals with NCI-H23 lung.
The subject of test [11] is NCI-H522 lung.
The subject of test [12] is OVCAR-3 ovarian.
Test [13] relates to OVCAR-5 ovarian.
The test system of test [14] is PC-3 prostate.
The test system of test [15] is SK-MEL-5 melanoma.
The subject of test [16] is SK-OV-3 ovarian.
Test [17] relates to SR leukemia.
Test [18] deals with UACC-257 melanoma.
The test system of test [19] is RXF 393 renal.

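Briefly, cells in 96-well plates were exposed to five compound concentrations for 48 h, and endpoints were estimated by linear interpolation. TGI: concentration producing complete growth inhibition.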

For `CCOc1ncn(-c2ccc(NC(=S)NC34CC5CC(CC(C5)C3)C4)cc2)n1`, the TGI in test [1], in test [2], in test [3], in [4], in test [5] and in [6] was over 100 µM in each case. Moreover, the TGI in test [7], in [8], in test [9], in test [10], in [11] and in [12] was over 100 µM each time. Also, the TGI in test [13], in test [14], in [15], in test [16], in test [17] and in [18] was over 100 µM each time.

In the case of `c1ccc(C2OCC(OC3CCCCO3)CO2)cc1` (stereo not given), the TGI in test [1], in [2], in [3], in test [5], in test [6] and in [7] was over 100 µM each time. In addition, the TGI in test [8], in [9], in test [10], in test [11], in [12] and in [13] was over 100 µM in each case. Moreover, the TGI in test [14], in test [15], in test [16], in test [17] and in test [18] was over 100 µM each time.

For the molecule `CC(=O)O[C@H]1CCn2c3c(c(C)c21)C(=O)C(N1CC1)=C(C)C3=O`, the TGI in test [1] is over 10 µM; in test [2], 7.83 µM; in test [3] it was over 10 µM; in test [4], over 10 µM; in test [5] it was over 10 µM; in test [6] it was over 10 µM. The TGI in test [7], in [8], in [9], in [10], in test [11] and in test [12] was over 10 µM each time. Besides, the TGI in test [13] was over 10 µM; in test [14], over 10 µM; in test [15] it was 6.67 µM; in test [16], over 10 µM; in test [17], over 10 µM; in test [18], over 10 µM.

As for `COC(=O)[C@@]12C(=O)C(C)C(=O)[C@]1(C)C(C)=C[C@H]1[C@]3(C=O)CC[C@H](OC(C)=O)C(C)(C)[C@H]3CC[C@@]12C` (stereo not given in full), the TGI was over 100 µM in test [1]; over 100 µM in test [2]; over 100 µM in test [3]; 63.8 µM in test [4]; over 100 µM in test [5]; over 100 µM in test [6]. Besides, the TGI in test [7], in test [9], in [10], in test [11], in [12] and in test [13] was over 100 µM throughout. Besides, the TGI in [14], in test [19], in [15], in test [16], in test [17] and in test [18] was over 100 µM in each case.

Regarding `NC(CCC(=O)O)(CCC(=O)O)CCC(=O)O`, the TGI in [1], in test [2], in test [3], in [4], in test [5] and in test [7] was over 100 µM each time. In addition, the TGI in test [8], in test [9], in test [10], in test [11], in test [13] and in test [14] was over 100 µM in each case. Moreover, the TGI in test [19], in [15], in [16], in [17] and in test [18] was over 100 µM in each case.

With `O=S(=O)(O)c1ccc2c(N=Nc3ccc(F)cc3)c(O)c(S(=O)(=O)O)cc2c1`, the TGI in test [1], in test [2], in test [3], in [4], in test [5] and in test [6] was over 100 µM throughout. Besides, the TGI in test [7], in test [9], in [10], in [11], in test [12] and in test [13] was over 100 µM throughout. The TGI in [14], in [19], in test [15], in test [16], in [17] and in test [18] was over 100 µM in each case.

For `O=C1CCCCC/C1=C\c1ccc(Cl)cc1`, the TGI is over 100 µM in test [1]; over 100 µM in [2]; over 100 µM in [3]; 50.3 µM in test [4]; over 100 µM in test [5]; over 100 µM in test [6]. Besides, the TGI in [7] was over 100 µM; in [9] it was over 100 µM; in test [10], over 100 µM; in [11], 73 µM; in test [12], over 100 µM; in [13] it was over 100 µM. Also, the TGI in [14] is 48.4 µM; in test [15], 35.2 µM; in test [16], over 100 µM; in test [17], over 100 µM; in [18], over 100 µM.

With `Oc1ccc(/C=C/c2ccc3cccc(O)c3n2)cc1O`, the TGI in test [1] is 50.9 µM; in [2] it was 27.8 µM; in test [3], 4.03 µM; in test [4], over 100 µM; in [5], over 100 µM; in test [6], 16.5 µM. Also, the TGI in test [7] is 7.46 µM; in [8], 93.7 µM; in [9] it was 62.8 µM; in test [12] it was 46 µM; in [13], 46.3 µM; in test [14], 67.6 µM. Besides, the TGI was 7.4 µM in test [19]; 13.4 µM in test [15]; over 100 µM in test [16]; 18.6 µM in [17]; 47.3 µM in test [18].
